In paper PMC7044140, “Comparative studies on similarities and differences of cyclodipeptide oxidases for installation of C–C double bonds at the diketopiperazine ring” (Applied Microbiology and Biotechnology, 2020):

Tests used:
CDO-Np (CDO-NpA/CDO-NpB) = molecular target: T1, CDO-Np (CDO-NpA/CDO-NpB) (Nocardiopsis sp. L17-MgMaSL7, UniProt A0A317LX08+A0A317LXS7); experiment: LC-MS/HPLC product formation with E. coli crude extract; type: biochemical; conditions: 1 mM substrate, 1 mM phenazine methosulfate, pH 7.5, 40 °C; dehydrogenation
T1 construct: gene BDW27_11054; desalted crude extract
T1 sequence (A0A317LXS7 1-185): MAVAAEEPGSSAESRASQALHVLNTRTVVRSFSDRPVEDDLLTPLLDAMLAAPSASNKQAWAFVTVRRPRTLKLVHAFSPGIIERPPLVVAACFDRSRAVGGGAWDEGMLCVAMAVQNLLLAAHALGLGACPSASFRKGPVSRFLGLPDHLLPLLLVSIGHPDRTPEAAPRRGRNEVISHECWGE
T1 sequence (A0A317LX08 1-105): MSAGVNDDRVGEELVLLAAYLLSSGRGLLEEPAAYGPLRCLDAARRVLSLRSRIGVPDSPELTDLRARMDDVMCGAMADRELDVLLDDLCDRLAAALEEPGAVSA

AlbA/B = molecular target: T2, AlbA/B (Streptomyces noursei, UniProt Q8GED8+Q8GED9); experiment: as above; type: biochemical; conditions: 1 mM substrate, 1 mM phenazine methosulfate, pH 7.5, 40 °C; dehydrogenation
T2 construct: both subunits co-expressed from overlapping genes in pQE-60 (pKB90) in E. coli SG 13009; desalted crude extract; CDOs described as multimers above 2000 kDa, estimated B to A ratio 1:10
T2 sequence (Q8GED9 whole entry): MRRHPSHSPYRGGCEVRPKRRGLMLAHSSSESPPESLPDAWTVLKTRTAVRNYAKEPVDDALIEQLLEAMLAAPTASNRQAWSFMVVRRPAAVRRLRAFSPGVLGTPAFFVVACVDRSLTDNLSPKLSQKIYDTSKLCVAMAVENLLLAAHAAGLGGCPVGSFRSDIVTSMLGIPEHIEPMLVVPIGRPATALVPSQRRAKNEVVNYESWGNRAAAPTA
T2 sequence (Q8GED8 whole entry): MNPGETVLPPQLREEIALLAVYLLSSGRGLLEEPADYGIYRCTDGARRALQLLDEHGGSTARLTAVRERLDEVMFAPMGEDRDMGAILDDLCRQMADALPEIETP

| SMILES | LC-MS/HPLC product formation with E. coli crude extract (CDO-Np (CDO-NpA/CDO-NpB)) | LC-MS/HPLC product formation with E. coli crude extract (AlbA/B) |
| --- | --- | --- |
| CC(C)C[C@@H]1NC(=O)[C@H](Cc2ccccc2)NC1=O [1a, cyclo-L-Phe-L-Leu] | CDO-Np showed very high activity toward 1a and 2a | – |
| O=C1N[C@@H](Cc2ccc(O)cc2)C(=O)N[C@H]1Cc1ccccc1 [2a, cyclo-L-Phe-L-Tyr] | In vitro incubation of 2a with CDO-Np led to an almost complete conversion to 2d | The behavior of AlbA/B with 2a was similar to CDO-Np with 3a and 5a |
| O=C1N[C@@H](Cc2c[nH]c3ccccc23)C(=O)N[C@H]1Cc1ccc(O)cc1 [3a, cyclo-L-Trp-L-Tyr] | – | Only one didehydrogenated product 3b or 5b was detected in the reaction mixtures of AlbA/B |
